Source: paper PMC5570900, “Exploiting a novel conformational switch to control innate immunity mediated by complement protein C3a” (Nature Communications, 2017)

Tests used:
C3aR [1] = target: T1, C3aR (Homo sapiens, UniProt Q16581); test: Intracellular Ca2+ release in human monocyte-derived macrophages (agonist mode); format: cell-based; design: Concentration-dependent Ca^2+ release in human monocyte-derived macrophages (HMDMs); endogenous in cells; host or cells: primary human monocyte-derived macrophages (HMDMs); details: HMDMs, n ≥ 3, ± SEM
T1 sequence (Q16581 1-482): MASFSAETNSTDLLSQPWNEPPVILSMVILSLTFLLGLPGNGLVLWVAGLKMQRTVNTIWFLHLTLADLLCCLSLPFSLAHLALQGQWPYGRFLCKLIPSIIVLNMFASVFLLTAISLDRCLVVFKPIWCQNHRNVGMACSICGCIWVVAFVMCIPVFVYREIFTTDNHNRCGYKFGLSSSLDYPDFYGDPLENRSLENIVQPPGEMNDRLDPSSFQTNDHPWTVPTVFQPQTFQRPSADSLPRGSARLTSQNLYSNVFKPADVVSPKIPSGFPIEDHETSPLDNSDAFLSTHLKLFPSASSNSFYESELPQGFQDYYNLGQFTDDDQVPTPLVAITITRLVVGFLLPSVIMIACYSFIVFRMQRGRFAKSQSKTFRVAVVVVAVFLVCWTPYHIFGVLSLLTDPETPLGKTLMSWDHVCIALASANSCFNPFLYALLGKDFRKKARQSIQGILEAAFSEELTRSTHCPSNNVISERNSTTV
Protocol: (§1) HMDMs were isolated using Ficoll-paque density centrifugation (GE Healthcare Bio-Science, Uppsala, Sweden) from buffy coat (of anonymous human donors) provided by the Australian Red Cross Blood Service, Brisbane. CD14^+ monocytes were positively selected using CD14 MicroBeads (Miltenyi Biotech, Auburn, USA)[40], [41]. CD14^+ monocytes were differentiated to HMDMs using 100 ng/mL of recombinant human macrophage colony-stimulating factor (PeptroTech, Rocky Hill, USA) for 7 days in Iscove’s modified Dulbecco’s media supplemented with 10% fetal bovine serum, penicillin (100 U/mL), streptomycin (100 µg/mL) and L-glutamine (2 mM). HMDMs were supplemented after 5 days with fresh medium containing 10 ng/ml macrophage colony-stimulating factor and collected by gentle scraping on day 7.
(§2) HMDMs were seeded to a 96-well clear-bottom black-wall assay plate at a density of 5 × 10^4 cells per well and allowed to adhere overnight. Prior to assay, cells were incubated with dye-loading buffer (Hank’s balance salt solution (HBSS) buffer, 4 μM Fluo-3 AM, 25 μl Pluronic acid F-127 and 1% fetal bovine serum) for 1 h at 37 °C. Cells were then washed once with assay buffer (HBSS supplemented with 2.5 mM probenecid and 20 mM HEPES, pH 7.4). Intracellular calcium release was monitored using a fluorescence imaging plate reader (excitation 495 nm, emission 520 nm). The percentage responses were plotted against logarithmic concentrations of each test compound[42].

C3aR [2] = target: T1, C3aR; test: Histamine secretion in human LAD2 mast cells (agonist mode); format: cell-based; design: Concentration-dependent histamine secretion in human LAD2 mast cells; endogenous in cells; host or cells: LAD2 human mast cells; details: for EC50: compound alone, 30 min, n ≥ 3, ± SEM
Protocol: LAD2 human mast cells (kindly provided by Dr Dean Metcalfe, National Institute of Allergy and Infectious Diseases, National Institute of Health) were cultured in StemPro®-34 Serum Free Media (Invitrogen, Australia) supplemented with StemPro®-34 nutrient, 100 U/mL penicillin, 100 μg/mL streptomycin, 2 mM GlutaMAX, and 100 ng/mL human stem cell factor (SCF). Cells were hemi-depleted weekly and were not allowed to grow beyond a density of 0.5 × 10^6/mL. This cell line was authenticated by expression of tryptase and histamine granules. For the histamine assay, 1 × 10^4 cells per well were seeded in StemPro®-34 SFM in 96-well plates for 30 min before any treatments. For agonist studies, the cells were treated with compounds prepared in media for 30 min. For antagonist studies, the cells were pre-treated with compounds prepared in SFM for 30 min before addition of C3aR agonists for another 30 min. Cells were centrifuged (500 g, 5 min, 4 °C) and cell-free supernatants were collected for measuring histamine. Histamine content was measured using the histamine EIA kit according to the manufacturer’s instructions (Abnova, Taiwan). The readings were recorded on a FLUOstar Optima (BMG LabTechnologies, Offenburg, Germany).

C3aR [3] = target: T1, C3aR; test: Inhibition of hC3a-induced Ca2+ release in human monocyte-derived macrophages; format: cell-based; design: Concentration-dependent Ca^2+ release in human monocyte-derived macrophages (HMDMs); endogenous in cells; host or cells: primary human monocyte-derived macrophages (HMDMs); details: HMDMs, hC3a 100 nM, n ≥ 3, ± SEM
Protocol: as §1, §2

mast cells = test: Mast cell stabilizer in BR103-induced rat paw edema; format: in vivo; details: 20 mg/kg s.c., 30 min prior, 0.5 h
Protocol: Male Wistar rats (8–9 weeks) were injected with BR103 (3, 350 μg in 100 μL isotonic saline) into the plantar surface of both hind paw pads using a 30G needle. The inhibitor cromolyn (20 mg/kg in 5% DMSO) was injected subcutaneously 30 min before the agonist. The antagonist BR111 (6, 5–20 mg/kg in olive oil) was administered orally as a single dose 2 h before the agonist. Paw thickness and width were measured using digital calipers (WPI) at 0, 0.5, 2, 6 and 24 h after agonist BR103 administration. Hind paw size is expressed as % change in area from baseline after 0.5 h and then normalized against maximum swelling induced by agonist alone. Researchers were not blinded to treatments given. Rat paw tissue was collected and fixed in 4% paraformaldehyde (pH 7.4) for 2 h in the cold room (4 °C). The rat paw tissue was then transferred into falcon tubes containing 30% sucrose solution in PBS and left overnight in the cold room. The next day, rat paw tissue was embedded with the Optimal Cutting Temperature compound (OCT, Sakura Finetek, USA) and stored in the −80 °C freezer before being used for making cryo-sections for histological analysis. Frozen sections of 5 microns were prepared using a cryostat-microtome (Leica Biosystems, Germany) and stained using standard protocols on the same day. In normal histological staining, such as with alcian blue and safranin O and hematoxylin and eosin (H&E), samples were briefly washed with distilled water before staining. In alcian blue and safranin O, samples were stained with 0.1% alcian blue (Sigma-Aldrich, USA) and 0.5% safranin O (Sigma-Aldrich, USA) before being mounted in mounting medium. In H&E, samples were stained with hematoxylin (Sigma-Aldrich, USA) and 0.1% eosin (Sigma-Aldrich, USA) before being mounted in mounting medium. In immunohistochemistry, samples were briefly rinsed with PBS to remove OCT and incubated with blocking medium (PBS, 0.1% triton X-100, 10% horse serum) for 1 h at room temperature. Samples were incubated with primary antibody medium (PBS, 4% horse serum, 1:200 histamine or 1:200 of tryptase or 1:150 ED1 or 1:200 ED2 antibodies) overnight at 4 °C. The next day, samples were washed with PBS and were incubated with the secondary antibody medium (PBS, 4% horse serum, detection antibody 1:1000) for 1 h at room temperature. The samples were briefly rinsed, dried and counterstained with DAPI (Invitrogen, Australia). Primary antibodies for histamine (Sigma-Aldrich, USA, H2403, monoclonal rabbit anti-rat IgG, 1: 200), tryptase (Abcam, Australia, ab2378, monoclonal mouse anti-rat IgG, 1:200), ED1 (Serotec, UK, MCA341R, monoclonal mouse anti-rat, 1:150), ED2 (Serotec, UK, MCA3424R, monoclonal mouse anti-rat, 1:200) were purchased from commercial sources. Secondary detection antibody was purchased from (Invitrogen, Australia). ED1 & ED2 positive cells were quantified using FIJI/ImageJ 1.42q software, U.S. National Institutes of Health, Bethesda, MD, USA[44]. All microscope images were obtained using an Olympus BX-51 upright microscope with Olympus DP-71 12Mp colour camera, utilizing DP Capture and DP Manager software packages (Olympus, Tokyo, Japan). Researchers who performed histological analysis and scoring were blinded to the sample identity. Rat paw tissues were collected and immediately frozen with liquid nitrogen. Frozen rat paw tissues were cut into smaller pieces and mixed with 1 mL of TRIsure (Bioline, Australia) prior to homogenizing according to manufacturer’s instructions. […]

C5aR = target: T2, C5aR (Homo sapiens, UniProt P21730); test: [125I]-hC5a competition binding on HMDMs; details: [125I]-hC5a 25 pM
T2 construct: endogenous in cells; host or cells: primary human monocyte-derived macrophages (HMDMs)
T2 sequence (P21730 1-350): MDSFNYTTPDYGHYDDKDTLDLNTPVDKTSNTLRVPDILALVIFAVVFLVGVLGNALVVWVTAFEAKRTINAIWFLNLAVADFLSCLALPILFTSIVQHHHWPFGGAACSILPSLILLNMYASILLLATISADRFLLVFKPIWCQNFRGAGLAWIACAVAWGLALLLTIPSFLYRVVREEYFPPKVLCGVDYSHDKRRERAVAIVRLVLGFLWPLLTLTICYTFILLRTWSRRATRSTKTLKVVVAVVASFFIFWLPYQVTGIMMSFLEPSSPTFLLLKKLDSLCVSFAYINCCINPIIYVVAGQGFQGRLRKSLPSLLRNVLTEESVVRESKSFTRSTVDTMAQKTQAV
Protocol: Receptor binding was performed by ligand competition with labelled 80 pM [^125I]-C3a or 25 pM [^125I]-C5a (2200 Ci/mmol; Perkin Elmer, Torrance, CA, USA) on HMDMs (1.2 × 10^6 cells/ml). HMDMs were treated with [^125I]-C3a or [^125I]-C5a ± various concentrations of unlabelled C3a/C5a or experimental ligands were diluted with assay buffer (50 mM Tris, 3 mM MgCl2, 0.1 mM CaCl2, 0.5% (w/v) BSA, pH 7.4) for 60 min at room temperature. Unbound [^125I]-C3a or [^125I]-C5a was removed by filtration through glass microfibre filter GF/B (Whatman Iner. Ltd, England) and washed three times with cold buffer (50 mM Tris-HCl pH 7.4). Bound [^125I]-C3a or [^125I]-C5a were assessed by scintillation counting on Microbeta counter. Specific binding was defined as the difference between total binding and nonspecific binding as determined in the presence of 1 μM unlabelled C3a or C5a[4].

N=C(N)NCCC[C@H](NC(=O)c1csc(C(c2ccccc2)c2ccccc2)n1)C(=O)O [Compound 1]
EC50 (C3aR [1]): 50 ± 20 nM
Type of agonist response, histamine release (C3aR [2]): partial agonist
EC50 (C3aR [2]): 110 ± 40 nM

Cc1sc(C(c2ccccc2)c2ccccc2)nc1C(=O)N[C@@H](CCCNC(=N)N)C(=O)O [Compound 2]
EC50 (C3aR [1]): 140 ± 60 nM
Type of agonist response, histamine release (C3aR [2]): full agonist response
EC50 (C3aR [2]): 300 ± 100 nM

N=C(N)NCCCC(NC(=O)c1cnc(C(c2ccccc2)c2ccccc2)s1)C(=O)O (stereo not drawn) [Compound 4]
IC50 (C3aR [3]): 600 ± 200 nM

Cc1nc(C(c2ccccc2)c2ccccc2)sc1C(=O)NC(CCCNC(=N)N)C(=O)O (stereo not drawn) [Compound 5]
IC50 (C3aR [3]): 2000 ± 1100 nM

O=C(O)c1cc(=O)c2c(OCC(O)COc3cccc4oc(C(=O)O)cc(=O)c34)cccc2o1 [cromolyn]
Effect on BR103-induced histamine expression in paw (mast cells): reduced histamine expression
Effect on BR103-induced infiltration of ED1+ macrophages (mast cells): reduced infiltration of inflammatory ED1^+ macrophages
Effect on BR103-induced inflammatory gene expression (Il1β, Il6, Tnf, Ccl3, Mcp1) (mast cells): reduced expression of early response inflammatory genes
Effect on BR103-induced mast cell activation and degranulation (mast cells): attenuated BR103-induced increased activation
Effect on BR103-induced paw swelling (mast cells; BR103 350 µg/paw i.pl.): significant reduction in BR103-induced paw swelling at 0.5 h, almost back to baseline levels

Ac-cyclo-(2,6)-Phe-[Orn-Pro-dCha-Trp-Arg] [Compound 3D53, reference compound]
C5aR binding by competition with [125I]-hC5a (C5aR): C5aR-binding

B1: hC5a: human complement protein C5a, ligand of C5aR (protein, UniProt P01031 678-751, looked up)
C5a anaphylatoxin: TLQKKIEEIAAKYKHSVVKKCCYDGACVNNDETCEQRAARISLGPRCIKAFTECCVVASQLRANISHKDMQLGR
modifications: C5a anaphylatoxin
notes: human complement protein C5a, ligand of C5aR
C5aR binding by competition with [125I]-hC5a (C5aR): C5aR-binding
